# Assay results: patent US20130296370A1, “COMPOSITION COMPRISING A PHOTOACTIVATABLE LARVICIDE” (UNIVERSITA DEGLI STUDI DI PADOVA, priority 2010, published 2013)
# What was measured:
# Type in all cases: in vivo
# [1] = test system: Aedes aegypti 3rd-4th instar larvae; test: Efficacy and residual activity of photolarvicidal formulations; conditions: for % mortality by incubation time: 12 h irradiation
# Procedure: To assess the effect of different C14 loading concentrations on the photolarvicidal activity of the C14-PFP complexes, two photolarvicidal formulates were prepared. The formulates, named C14 PF-5 and C14 PF-50, were obtained by incubating overnight at room temperature under gentle shaking 25 mg of PFP in 500 ml of 5 μM and 50 μM aqueous solutions of C14, respectively. The solutions were filtered using Whatman qualitative filter papers (Whatman International Ltd., UK) and the solid residues, consisting in the C14-PFP complexes, were washed with 10 ml distilled water, oven-dried at 37° C. for 4 hours and stored at room temperature until use. To quantify the amount of bound C14, samples of the two C14-PFP formulates were dissolved in 3 ml of 2% SDS for 2 h under gentle magnetic stirring. The extracted porphyrin was then quantified by spectrophotometric analysis as described above.
# (§1) All the experiments were carried out in a climatic chamber at 28±2° C. with a regulated photoperiod of 12 hours. Transparent plastic trays, containing 500 ml C14 solutions or spring water were employed. Typically, 5±1 days old, 3rd-early 4th instar Aedes aegypti larvae were used. All the experiments were replicated three times.
# Five series of trays were prepared, namely 0.3 μM and 5 μM C14 porphyrin solutions containing 6 mg PFP (wherein PFP means powdered food pellet (PFP) with final particle diameter of 5-500 μm diameter obtained by crushing a standard food pellet for laboratory rodents, namely 4RF18 GLP (Mucedola Srl, Italy) using an electric blender and then sieving at mesh diameter 500 μm); spring water containing 6 mg C14 PF-5 or C14 PF-50 formulate (wherein C14 PF-5 and C14 PF-50, were obtained by incubating overnight at room temperature under gentle shaking 25 mg of PFP in 500 ml of 5 μM and 50 μM aqueous solutions of C14, respectively) and spring water containing 6 mg PFP as a control. Each series was arranged into three groups, which were incubated at a 12 hour photoperiod for 48 hours, one, or two weeks, respectively. At the end of the incubation periods, batches of 100 larvae, having fasted for 24 hours, were introduced into the trays, at 8 pm (beginning of the 12 h-long dark period in the climatic chamber). Larval mortality was evaluated after 12 hours (next day at 8.00 pm) of irradiation.
# [2] = test system: Aedes aegypti; test: Laboratory-scale tray larvicide test; conditions: carrier mouse food; 70 mg per tray; loading concentration 5 μM; fluorescent lamp
# Procedure: (§2) Laboratory strains of Anopheles stephensi, M and S (Kisumu), chromosomal forms of An. gambiae, An. arabiensis and Aedes aegypti, as well as field-collected Anopheles spp. and Aedes spp. larvae were used. Laboratory mosquitoes were maintained at 28-30° C., >90% RH and a photoperiod of 12 h. Light intensity ranged between 0.5 mW/cm^2 (fluorescent lamp) and 185 mW/cm^2 (sunlight).
# (§3) C12 or C14 porphyrin solutions at 5-100 μM concentrations were pre-incubated at room temperature in the darkness with 15-60 mg of carrier (either Eudragit or ground mouse food or cat food) for 4-12 hours under gentle shaking. After incubation the solutions were filtered, and the loaded carrier was dried at room temperature or in an oven (45° C.).
# Batches of 60-100 L2, L3 or L4 larvae were introduced into the trays after sunset (or artificial light off). Larval mortality was evaluated the next day starting from 8.00 am, and the time required to reach at least 90% mortality was recorded. Larvae not moving or not showing an escaping response at probing were defined as dead or dying, and counted together (Tables 2 and 3). Pupae occasionally formed throughout the irradiation time were discarded and excluded from the evaluation. An equal number of batches of larvae prepared in the same way were kept in continuous darkness and mortality was evaluated similarly, to assess toxicity in the dark. […]
# [3] = test system: An. stephensi; test: Laboratory-scale tray larvicide test; conditions: carrier mouse food; 6 mg per tray; loading concentration 0.5 μM; fluorescent lamp
# Procedure: as §2, §3
# One litre capacity, transparent plastic trays containing wells with each 500 ml water and 6-60 mg of the composition of the present invention were prepared. Batches of 60-100 L2, L3 or L4 larvae were introduced into the trays after sunset (or artificial light off). Larval mortality was evaluated the next day starting from 8.00 am, and the time required to reach at least 90% mortality was recorded. Larvae not moving or not showing an escaping response at probing were defined as dead or dying, and counted together (Tables 2 and 3). Pupae occasionally formed throughout the irradiation time were discarded and excluded from the evaluation. An equal number of batches of larvae prepared in the same way were kept in continuous darkness and mortality was evaluated similarly, to assess toxicity in the dark.
# Light intensity range: 0.5-185 mW/cm^2.
# [4] = test system: Aedes aegypti larvae; test: C14 porphyrin toxicity in the dark; conditions: for emerged adults (%) / emerged adults (count) / adult % survival after light exposure: 5 μM C14; for emerged adults (%) / emerged adults (count): pooled data; for adult % survival after light exposure: 12 h-long irradiation 1.0-4.0 mW/cm^2
# Procedure: as §1
# At the end of the incubation period, dead and living larvae were counted in each tray. Larvae were then washed with tap water, and transferred to new trays containing spring water and PFP. Trays were kept in the dark until adults emerged. Adults were counted and exposed to light (intensity 1.0-4.0 mW/cm^2) for 12 hours, and their mortality was evaluated at the end of the irradiation period.
smiles,measurement,setting,value
"CCCCCCCCCCCCCC[n+]1ccc(-c2c3nc(c(-c4cc[n+](C)cc4)c4ccc([nH]4)c(-c4cc[n+](C)cc4)c4nc(c(-c5cc[n+](C)cc5)c5ccc2[nH]5)C=C4)C=C3)cc1.Cc1ccc(S(=O)(=O)[O-])cc1.Cc1ccc(S(=O)(=O)[O-])cc1.Cc1ccc(S(=O)(=O)[O-])cc1.Cc1ccc(S(=O)(=O)[O-])cc1 [C14, meso-tri(N-methyl-pyridyl), mono(N-tetradecyl-pyridyl)porphine]",% mortality by incubation time,"[1]; 0.3 μM C14 solution with 6 mg untreated larval food, trays incubated 1 week",100%
same,% mortality by incubation time,"[1]; 0.3 μM C14 solution with 6 mg untreated larval food, trays incubated 2 weeks",0%
same,% mortality by incubation time,"[1]; 0.3 μM C14 solution with 6 mg untreated larval food, trays incubated 48 hours",100%
same,residual activity,[1]; 0.3 μM solutions in water containing 6 mg untreated PFP,1 week
same,% mortality by incubation time,"[1]; 5 μM C14 solution with 6 mg untreated larval food, trays incubated 1 week",100%
same,% mortality by incubation time,"[1]; 5 μM C14 solution with 6 mg untreated larval food, trays incubated 2 weeks",100%
same,% mortality by incubation time,"[1]; 5 μM C14 solution with 6 mg untreated larval food, trays incubated 48 hours",100%
same,residual activity,[1]; 5 μM solutions in water containing 6 mg untreated PFP,two weeks
same,Time to reach ≧90% mortality,[2],3 h
same,Time to reach ≧90% mortality,[3],1 h
same,emerged adults (%),[4]; dark incubation 3 hours,(97.9) %
same,emerged adults (count),[4]; dark incubation 3 hours,138/141
same,emerged adults (%),[4]; dark incubation 8 hours,(100) %
same,emerged adults (count),[4]; dark incubation 8 hours,128/128
same,emerged adults (%),[4]; dark incubation 24 hours,(97.9) %
same,emerged adults (count),[4]; dark incubation 24 hours,138/141
same,adult % survival after light exposure,[4]; larval dark incubation 3 hours,100%
same,adult % survival after light exposure,[4]; larval dark incubation 8 hours,100%
same,adult % survival after light exposure,[4]; larval dark incubation 24 hours,100%
same,larval mortality in the dark,"[4]; 5 μM C14 solution, irrespectively of the duration of incubation",No mortality
